Assay results published in PMC4556614 (PLoS ONE, 2015).
Where two headings read alike, the source gives them in different places.

Tests used:
OCT2 [1] = target: T1, OCT2 (Homo sapiens, UniProt O15244); experiment: Inhibition of OCT2-mediated [3H]MPP+ uptake in HEK-OCT2 cells
Experimental: (§1) For the transport assays HEK cell lines stably transfected with human OCT2 (HEK-OCT2) or the vector only (HEK-VC) were used. The HEK-OCT2 cell line was established and characterized previously. HEK-OCT2 and HEK-VC cells were seeded in poly-D-lysine (Sigma Aldrich, Taufkirchen, Germany) coated 48-well-plates at a density of 1.2 x 10^5 cells/well. […] Uptake was stopped by washing the cells three times with ice-cold uptake buffer. Afterwards, cells were lysed with 5 mM Tris buffer (pH 7.3) containing 0.1% Triton X-100. The intracellular accumulation of radioactivity was determined by liquid scintillation counting (PerkinElmer, Rodgau-Jügesheim, Germany) and protein concentration of each lysate was measured with bicinchonic acid assay (BCA Protein Assay Kit, Thermo Fisher Scientific, Waltham, MA, USA). We performed two to eight experiments each on at least two separate days, i.e., n = 4–16.

OCT2 [2] = target: T1, OCT2; experiment: in vitro
Experimental: as §1
Experimental half-maximal inhibitory concentrations (IC50 values) were measured as the substrate uptake in the presence of increasing concentrations of test drugs. These experiments were performed as described above (three experiments each on two separate days, i.e., n = 6). IC50 values were calculated with GraphPad Prism 5.0 (GraphPad Software, San Diego, CA, USA). IC50 was estimated by a sigmoidal inhibition model and was fit to the equation V = V 0 / (1 + (I / IC50 ) ^n ) by nonlinear regression. V is the net uptake in the presence of the inhibitor, V 0 is the net uptake in the absence of the inhibitor, I is the concentration of the inhibitor and n is the slope.

[3] = test drug 20 µM, MPP+ 50 μM, 3 min, net uptake HEK-OCT2 minus HEK-VC
[4] = test drug 200 µM, MPP+ 50 μM, 3 min, net uptake HEK-OCT2 minus HEK-VC
[5] = human, pH 7.3, probe [3H]MPP+, 50 µM
[6] = human, pH 7.3, probe [14C]metformin, 1000 µM, % Inhibition of OCT2-dependent MF uptake at 20 µM (mean ± SEM), test drug 20 µM, metformin 1000 μM, 3 min, net uptake HEK-OCT2 minus HEK-VC
[7] = human, pH 7.3, probe [14C]metformin, 1000 µM, % Inhibition of OCT2-dependent MF uptake at 200 µM (mean ± SEM), test drug 200 µM, metformin 1000 μM, 3 min, net uptake HEK-OCT2 minus HEK-VC

T1 sequence (O15244 whole entry): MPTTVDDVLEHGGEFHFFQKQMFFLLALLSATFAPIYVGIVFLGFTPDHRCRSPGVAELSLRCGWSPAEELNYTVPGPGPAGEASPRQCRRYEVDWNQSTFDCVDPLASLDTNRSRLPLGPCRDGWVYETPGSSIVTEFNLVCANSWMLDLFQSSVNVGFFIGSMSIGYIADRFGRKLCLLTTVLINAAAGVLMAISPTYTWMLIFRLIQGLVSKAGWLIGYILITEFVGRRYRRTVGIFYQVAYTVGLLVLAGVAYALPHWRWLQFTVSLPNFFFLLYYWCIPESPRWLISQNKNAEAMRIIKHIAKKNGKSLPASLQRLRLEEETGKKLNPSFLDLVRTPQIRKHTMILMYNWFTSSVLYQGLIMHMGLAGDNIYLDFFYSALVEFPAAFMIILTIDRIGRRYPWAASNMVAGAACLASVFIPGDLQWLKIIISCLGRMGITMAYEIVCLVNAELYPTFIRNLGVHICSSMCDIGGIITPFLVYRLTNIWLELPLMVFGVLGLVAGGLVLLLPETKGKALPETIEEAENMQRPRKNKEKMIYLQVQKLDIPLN

SMILES | % Inhibition of OCT2-dependent MPP+ uptake at 20 µM (mean ± SEM) (OCT2 [1]; [3]) | % Inhibition of OCT2-dependent MPP+ uptake at 200 µM (mean ± SEM) (OCT2 [1]; [4]) | % Inhibition of OCT2-dependent MF uptake at 20 µM (mean ± SEM) (OCT2 [2]; human, pH 7.3) | % Inhibition of OCT2-dependent MF uptake at 200 µM (mean ± SEM) (OCT2 [2]; human, pH 7.3) | other results
Cc1ncsc1CCCl [Clomethiazole] | -6.7 ± 9.2% | -147.3 ± 23.7% | -9.2 ± 6.8 | 28.7 ± 3.9 | 
C[C@]12CCC(=O)C=C1[C@@H]1C[C@@H]1[C@H]1[C@@H]3[C@@H]4C[C@@H]4[C@@]4(CCC(=O)O4)[C@@]3(C)CC[C@@H]12 [Drospirenone] |  |  |  |  | inhibition at 3 min, 20 µM (OCT2 [1]; [5]): 0%; inhibition at 3 min, 200 µM (OCT2 [1]; [5]): 42.6 ± 1.4%; inhibition at 3 min, 20 µM (OCT2 [2]; [6]): > 85%; inhibition at 3 min, 200 µM (OCT2 [2]; [7]): 99.1 ± 0.7%; % Inhibition of OCT2-dependent MF uptake at 20 µM (mean ± SEM) (OCT2 [2]; test drug 20 µM, metformin 1000 μM, 3 min, net uptake HEK-OCT2 minus HEK-VC): 88.0 ± 7.3%
COC(=O)C1=C(C)NC(C)=C(C(=O)OC(C)(C)CN(C)CCC(c2ccccc2)c2ccccc2)C1c1cccc([N+](=O)[O-])c1 (stereo not shown) [Lercanidipine] |  |  |  |  | inhibition at 3 min, 20 µM (OCT2 [1]; [5]): -13.3 ± 8.6%; inhibition at 3 min, 200 µM (OCT2 [1]; [5]): -9.3 ± 3.6%; inhibition at 3 min, 20 µM (OCT2 [2]; [6]): 7.8 ± 3.8%; inhibition at 3 min, 200 µM (OCT2 [2]; [7]): -20.4 ± 11.1%
CN(C)CC/C=C1/c2ccccc2Sc2ccc(Cl)cc21 [Chlorprothixene] | 29.9 ± 7.5% | 91.7 ± 2.2% | 66.8 ± 7.9% | 98.4 ± 0.9% | 
NC(=O)CN1CCCC1=O [Piracetam] | -9.5 ± 12.1% | -0.5 ± 10.0% | 3.4 ± 3.4 | 2.5 ± 1.7 | 
COc1ccccc1OCCNCC(O)COc1cccc2[nH]c3ccccc3c12 (stereo not shown) [Carvedilol] | 32.2 ± 3.7% | 88.5 ± 1.5% | 84.3 ± 5.2% | 98.6 ± 0.5% | 
CC(C)Cc1ccc(C(C)C(=O)O)cc1 (stereo not shown) [Ibuprofen] | -5.8 ± 8.0% | -0.3 ± 7.5% | 23.4 ± 6.7 | 29.6 ± 4.1 | 
CCCCC(=O)N(Cc1ccc(-c2ccccc2-c2nnn[nH]2)cc1)[C@H](C(=O)O)C(C)C [Valsartan] |  |  |  |  | inhibition at 3 min, 20 µM (OCT2 [1]; human, pH 7.3): -77.2 ± 6%; inhibition at 3 min, 200 µM (OCT2 [1]; human, pH 7.3): -82.1 ± 9.9%; inhibition at 3 min, 20 µM (OCT2 [2]; human, pH 7.3): -41.7 ± 1.8%; inhibition at 3 min, 200 µM (OCT2 [2]; human, pH 7.3): -12.9 ± 3.6%
CCCC(CCC)C(=O)O [Valproic acid] | -17.3 ± 9.5% | -29.0 ± 9.2% | 18.5 ± 7.6 | 27.7 ± 1.9 | 
COc1ccc(Cl)cc1C(=O)NCCc1ccc(S(=O)(=O)NC(=O)NC2CCCCC2)cc1 [Glibenclamide] | -27.7 ± 5.0% | -31.1 ± 1.7% | 38.7 ± 11.9 | 87.9 ± 3.2 | 
C[C@]12CC[C@@H]3c4ccc(O)cc4CC[C@H]3[C@@H]1CC[C@@H]2O [Estradiol] | 10.6 ± 4.2% | 19.0 ± 6.5% | 57.9 ± 5.4 | 66.6 ± 2.1 | 
CN(C)CCCC1(c2ccc(F)cc2)OCc2cc(C#N)ccc21 (stereo not shown) [Citalopram] | 40.0 ± 9.9% | 75.2 ± 9.7% | 66.6 ± 7.9 | 78.9 ± 8.4 | 
OCCN1CCN(CCCN2c3ccccc3Sc3ccc(C(F)(F)F)cc32)CC1 [Fluphenazine] | 39.3 ± 7.0% | 94.3 ± 3.3% |  | 99.3 ± 0.4 | 
CN1C(=O)CN=C(c2ccccc2F)c2cc([N+](=O)[O-])ccc21 [Flunitrazepam] | 5.1 ± 8.4% | 57.5 ± 6.6% | 74.1 ± 3.1 | 92.9 ± 0.9 | 
COC(=O)C(c1ccccc1)C1CCCCN1 (stereo not shown) [Methylphenidate] |  |  | 17.9 ± 4.6 | 79.6 ± 2.3 | % Inhibition of OCT2-dependent MPP+ uptake at 20 µM (mean ± SEM) (OCT2 [1]; human, pH 7.3): 11.5 ± 8.9; % Inhibition of OCT2-dependent MPP+ uptake at 200 µM (mean ± SEM) (OCT2 [1]; human, pH 7.3): 31.6 ± 4.7
[Li] [Lithium] | -28.4 ± 7.5% | -36.7 ± 9.7% |  |  | % Inhibition of OCT2-dependent MF uptake at 20 µM (mean ± SEM) (OCT2 [2]): -15.2 ± 7.9; % Inhibition of OCT2-dependent MF uptake at 200 µM (mean ± SEM) (OCT2 [2]): -14.7 ± 6.8
Nc1ccc(O)c(C(=O)O)c1 [Mesalazine] | -51.3 ± 6.1% | -68.0 ± 8.5% | 21.6 ± 11.1 | 59.8 ± 6.7 | 
CNC(=C[N+](=O)[O-])NCCSCc1ccc(CN(C)C)o1 [Ranitidine] | -7.9 ± 12.9% | 11.6 ± 3.4% | 65.2 ± 7.7 | 91.5 ± 3.8 | 
COc1ccc(C(CN(C)C)C2(O)CCCCC2)cc1 (stereo not shown) [Venlafaxine] | -43.3 ± 13.0% | -54.3 ± 13.1% | 17.6 ± 3.2 | 72.2 ± 2.5 | 
CN1CCN2c3ncccc3Cc3ccccc3C2C1 (stereo not shown) [Mirtazapine] | -4.8 ± 4.0% | 57.6 ± 6.1% | 73.3 ± 3.0 | 90.7 ± 3.9 | 
O=[N+]([O-])O[C@H]1CO[C@H]2[C@@H]1OC[C@H]2O[N+](=O)[O-] [Isosorbide dinitrate] |  |  |  |  | inhibition at 3 min, 20 µM (OCT2 [1]; human, pH 7.3): -20.4 ± 5%; inhibition at 3 min, 200 µM (OCT2 [1]; human, pH 7.3): -82.4 ± 8%; inhibition at 3 min, 20 µM (OCT2 [2]; human, pH 7.3): -19.5 ± 6.9%; inhibition at 3 min, 200 µM (OCT2 [2]; human, pH 7.3): 21.7 ± 4.4%
NS(=O)(=O)c1cc2c(cc1Cl)NCNS2(=O)=O [Hydrochlorothiazide] | -55.4 ± 10.2% | -36.6 ± 7.4% | -34.7 ± 16.9 | -38.6 ± 8.5 | 
CNCCC(Oc1ccc(C(F)(F)F)cc1)c1ccccc1 (stereo not shown) [Fluoxetine] | 20.2 ± 3.5% | 91.8 ± 2.9% | 79.0 ± 0.9 | 98.5 ± 1.2 | 
CC(C)C[C@H](CN)CC(=O)O [Pregabalin] |  |  | -1.3 ± 9.0 | 27.2 ± 5.9 | % Inhibition of OCT2-dependent MPP+ uptake at 20 µM (mean ± SEM) (OCT2 [1]; human, pH 7.3): -29.6 ± 7.5; % Inhibition of OCT2-dependent MPP+ uptake at 200 µM (mean ± SEM) (OCT2 [1]; human, pH 7.3): -15.8 ± 5.2
CNCC[C@H](Oc1cccc2ccccc12)c1cccs1 [Duloxetine] |  |  | 76.5 ± 0.9 | 98.3 ± 0.2 | % Inhibition of OCT2-dependent MPP+ uptake at 20 µM (mean ± SEM) (OCT2 [1]; human, pH 7.3): 23.3 ± 6.0; % Inhibition of OCT2-dependent MPP+ uptake at 200 µM (mean ± SEM) (OCT2 [1]; human, pH 7.3): 86.4 ± 5.1
